Measurements published in article PMC5862592, “CDK8/19 inhibition induces premature G1/S transition and ATR-dependent cell death in prostate cancer cells” (Oncotarget, 2018).
Read-outs that look alike come from different tables or passages of the source.

Columns and labels:
Experiment in all cases: biochemical
Set-up in all cases: KINOMEscan active site-directed competition binding assay (DiscoveRx), 456 kinases, per cent of control at 300 nM
Conditions in all cases: read-out: Percent of Control (%)
BRSK2 = BRSK2 (Homo sapiens, UniProt Q8IWQ3)
Method in brief: (§1)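 Binding was measured with an active site-directed competition binding assay that quantifies compound–kinase interactions. Test compounds were screened at 300 nmol/L across a 456-kinase panel.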

CAMK2D = CAMK2D (Homo sapiens, UniProt Q13557)
Method in brief: as §1

CLK3 = CLK3 (Homo sapiens, UniProt P49761)
Method in brief: as §1

[1] = target: EGFR(L747-E749del, A750P) (Homo sapiens, UniProt P00533, A750P/DEL747-749)
Method in brief: as §1

EPHA3 = EPHA3 (Homo sapiens, UniProt P29320)
Method in brief: as §1

EPHA4 = EPHA4 (Homo sapiens, UniProt P54764)
Method in brief: as §1

EPHA5 = EPHA5 (Homo sapiens, UniProt P54756)
Method in brief: as §1

EPHB1 = EPHB1 (Homo sapiens, UniProt P54762)
Method in brief: as §1

ERK3 = target: T1, ERK3 (Homo sapiens, UniProt Q16659)
T1 construct: gene MAPK6
Method in brief: as §1

FGFR1 = FGFR1 (Homo sapiens, UniProt P11362)
Method in brief: as §1

FLT3(K663Q) = FLT3(K663Q) (Homo sapiens, UniProt P36888, K663Q)
Method in brief: as §1

FLT4 = FLT4 (Homo sapiens, UniProt P35916)
Method in brief: as §1

FYN = FYN (Homo sapiens, UniProt P06241)
Method in brief: as §1

MEK5 = target: T2, MEK5 (Homo sapiens, UniProt Q13163)
T2 construct: gene MAP2K5
Method in brief: as §1

NEK4 = NEK4 (Homo sapiens, UniProt P51957)
Method in brief: as §1

NLK = NLK (Homo sapiens, UniProt Q9UBE8)
Method in brief: as §1

SGK = target: T3, SGK (Homo sapiens, UniProt O00141)
T3 construct: gene SGK1
Method in brief: as §1

TNK2 = TNK2 (Homo sapiens, UniProt Q07912)
Method in brief: as §1

[2] = target: T4, TYK2(JH2domain-pseudokinase) (Homo sapiens, UniProt P29597)
T4 construct: JH2domain-pseudokinase
Method in brief: as §1

ULK3 = ULK3 (Homo sapiens, UniProt Q6PHR2)
Method in brief: as §1

VEGFR2 = target: T5, VEGFR2 (Homo sapiens, UniProt P35968)
T5 construct: gene KDR
Method in brief: as §1

WEE2 = WEE2 (Homo sapiens, UniProt P0C1S8)
Method in brief: as §1

Chain of FLT4 (P35916 whole entry): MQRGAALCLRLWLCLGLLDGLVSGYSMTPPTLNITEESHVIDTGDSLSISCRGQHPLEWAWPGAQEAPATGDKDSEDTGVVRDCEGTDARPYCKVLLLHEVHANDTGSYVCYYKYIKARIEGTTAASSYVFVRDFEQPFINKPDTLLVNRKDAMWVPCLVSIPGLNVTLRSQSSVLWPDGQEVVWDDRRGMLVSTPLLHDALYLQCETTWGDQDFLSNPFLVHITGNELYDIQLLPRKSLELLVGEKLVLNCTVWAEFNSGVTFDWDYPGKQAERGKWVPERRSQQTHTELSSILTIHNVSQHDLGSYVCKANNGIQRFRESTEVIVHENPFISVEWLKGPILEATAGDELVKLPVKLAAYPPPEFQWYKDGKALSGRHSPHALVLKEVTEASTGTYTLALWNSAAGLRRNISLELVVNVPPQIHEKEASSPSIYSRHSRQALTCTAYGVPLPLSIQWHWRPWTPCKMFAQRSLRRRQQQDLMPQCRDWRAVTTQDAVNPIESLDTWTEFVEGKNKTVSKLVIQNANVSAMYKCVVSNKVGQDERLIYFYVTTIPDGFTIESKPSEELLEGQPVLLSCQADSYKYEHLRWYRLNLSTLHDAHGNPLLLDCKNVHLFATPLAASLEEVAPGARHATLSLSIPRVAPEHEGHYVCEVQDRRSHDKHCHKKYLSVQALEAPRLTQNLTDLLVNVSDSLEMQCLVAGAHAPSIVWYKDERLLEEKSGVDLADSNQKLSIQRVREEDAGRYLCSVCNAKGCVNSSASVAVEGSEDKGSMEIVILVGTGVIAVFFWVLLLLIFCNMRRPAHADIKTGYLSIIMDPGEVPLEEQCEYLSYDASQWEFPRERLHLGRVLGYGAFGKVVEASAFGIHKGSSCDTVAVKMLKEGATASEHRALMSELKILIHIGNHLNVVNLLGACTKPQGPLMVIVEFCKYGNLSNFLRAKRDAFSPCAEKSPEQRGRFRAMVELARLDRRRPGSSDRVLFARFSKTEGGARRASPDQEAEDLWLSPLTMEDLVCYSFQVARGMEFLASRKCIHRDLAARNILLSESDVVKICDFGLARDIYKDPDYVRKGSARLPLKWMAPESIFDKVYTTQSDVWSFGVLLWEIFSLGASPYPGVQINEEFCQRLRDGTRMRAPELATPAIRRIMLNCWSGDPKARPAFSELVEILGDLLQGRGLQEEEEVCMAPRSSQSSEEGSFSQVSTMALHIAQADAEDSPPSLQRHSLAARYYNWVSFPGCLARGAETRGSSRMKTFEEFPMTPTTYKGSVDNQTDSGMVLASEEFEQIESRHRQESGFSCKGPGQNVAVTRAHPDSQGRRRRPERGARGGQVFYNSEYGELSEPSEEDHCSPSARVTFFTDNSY
Chain of WEE2 (P0C1S8 whole entry): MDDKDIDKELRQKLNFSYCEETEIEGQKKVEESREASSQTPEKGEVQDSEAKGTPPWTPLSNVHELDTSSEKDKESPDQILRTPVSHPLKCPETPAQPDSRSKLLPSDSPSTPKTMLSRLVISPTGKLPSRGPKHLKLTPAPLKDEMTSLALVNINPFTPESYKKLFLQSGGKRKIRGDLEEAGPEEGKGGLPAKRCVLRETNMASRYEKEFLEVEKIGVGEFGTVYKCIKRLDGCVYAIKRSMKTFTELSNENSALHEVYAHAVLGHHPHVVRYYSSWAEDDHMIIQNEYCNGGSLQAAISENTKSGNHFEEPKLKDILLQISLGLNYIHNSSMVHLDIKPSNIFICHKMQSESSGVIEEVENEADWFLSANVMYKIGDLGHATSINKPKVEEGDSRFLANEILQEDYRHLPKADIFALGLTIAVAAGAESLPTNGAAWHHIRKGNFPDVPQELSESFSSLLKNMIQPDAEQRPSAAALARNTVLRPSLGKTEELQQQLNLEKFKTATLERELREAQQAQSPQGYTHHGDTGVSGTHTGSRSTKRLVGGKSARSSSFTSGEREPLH
T4 sequence (P29597 whole entry): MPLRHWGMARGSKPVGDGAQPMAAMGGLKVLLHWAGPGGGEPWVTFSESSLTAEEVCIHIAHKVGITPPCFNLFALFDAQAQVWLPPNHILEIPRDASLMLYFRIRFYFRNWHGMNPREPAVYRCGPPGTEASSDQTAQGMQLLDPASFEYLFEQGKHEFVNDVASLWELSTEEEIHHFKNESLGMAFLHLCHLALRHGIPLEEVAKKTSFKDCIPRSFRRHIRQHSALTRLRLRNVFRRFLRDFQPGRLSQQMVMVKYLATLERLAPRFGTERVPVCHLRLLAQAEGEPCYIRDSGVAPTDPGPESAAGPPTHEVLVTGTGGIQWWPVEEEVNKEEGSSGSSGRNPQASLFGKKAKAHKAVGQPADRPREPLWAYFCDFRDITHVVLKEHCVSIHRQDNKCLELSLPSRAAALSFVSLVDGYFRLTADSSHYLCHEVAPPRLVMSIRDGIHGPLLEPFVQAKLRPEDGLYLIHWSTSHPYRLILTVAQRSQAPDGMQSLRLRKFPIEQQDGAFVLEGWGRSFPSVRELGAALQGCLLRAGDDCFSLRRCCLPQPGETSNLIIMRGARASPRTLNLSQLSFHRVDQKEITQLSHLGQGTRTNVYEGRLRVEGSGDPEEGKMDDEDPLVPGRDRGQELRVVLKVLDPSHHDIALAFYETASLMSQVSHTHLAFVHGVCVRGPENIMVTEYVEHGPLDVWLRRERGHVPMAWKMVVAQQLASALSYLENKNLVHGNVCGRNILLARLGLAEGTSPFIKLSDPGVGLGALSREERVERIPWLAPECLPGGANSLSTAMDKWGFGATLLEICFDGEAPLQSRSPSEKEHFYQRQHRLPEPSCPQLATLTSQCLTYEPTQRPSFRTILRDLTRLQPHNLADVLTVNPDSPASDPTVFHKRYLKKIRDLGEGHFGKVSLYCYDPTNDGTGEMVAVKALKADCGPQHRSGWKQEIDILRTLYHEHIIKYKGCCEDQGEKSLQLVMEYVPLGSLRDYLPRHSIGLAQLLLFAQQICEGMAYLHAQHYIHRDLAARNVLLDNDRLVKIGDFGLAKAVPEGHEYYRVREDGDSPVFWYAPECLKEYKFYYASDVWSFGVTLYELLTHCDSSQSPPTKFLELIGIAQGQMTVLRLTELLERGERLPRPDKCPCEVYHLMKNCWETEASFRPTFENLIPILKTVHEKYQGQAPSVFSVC
Chain of BRSK2 (Q8IWQ3 whole entry): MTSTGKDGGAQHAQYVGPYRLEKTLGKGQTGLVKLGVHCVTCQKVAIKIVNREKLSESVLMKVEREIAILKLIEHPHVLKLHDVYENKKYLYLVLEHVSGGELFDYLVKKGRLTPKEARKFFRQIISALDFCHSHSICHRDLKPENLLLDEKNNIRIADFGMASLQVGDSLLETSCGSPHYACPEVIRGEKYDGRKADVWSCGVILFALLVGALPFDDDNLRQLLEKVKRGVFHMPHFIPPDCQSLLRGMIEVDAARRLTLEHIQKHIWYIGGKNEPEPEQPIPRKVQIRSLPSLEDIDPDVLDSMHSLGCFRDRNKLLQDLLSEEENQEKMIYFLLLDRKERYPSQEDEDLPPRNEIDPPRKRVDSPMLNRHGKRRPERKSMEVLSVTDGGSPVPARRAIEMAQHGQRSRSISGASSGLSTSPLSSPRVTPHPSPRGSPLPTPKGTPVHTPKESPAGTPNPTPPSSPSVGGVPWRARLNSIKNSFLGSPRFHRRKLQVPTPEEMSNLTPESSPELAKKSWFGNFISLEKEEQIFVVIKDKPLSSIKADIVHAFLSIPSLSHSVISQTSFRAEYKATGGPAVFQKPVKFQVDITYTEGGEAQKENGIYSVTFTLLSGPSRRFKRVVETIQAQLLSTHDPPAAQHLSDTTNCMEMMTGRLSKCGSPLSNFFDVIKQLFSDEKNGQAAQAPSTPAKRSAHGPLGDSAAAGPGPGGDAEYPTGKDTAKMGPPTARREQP
Chain of EPHA5 (P54756 whole entry): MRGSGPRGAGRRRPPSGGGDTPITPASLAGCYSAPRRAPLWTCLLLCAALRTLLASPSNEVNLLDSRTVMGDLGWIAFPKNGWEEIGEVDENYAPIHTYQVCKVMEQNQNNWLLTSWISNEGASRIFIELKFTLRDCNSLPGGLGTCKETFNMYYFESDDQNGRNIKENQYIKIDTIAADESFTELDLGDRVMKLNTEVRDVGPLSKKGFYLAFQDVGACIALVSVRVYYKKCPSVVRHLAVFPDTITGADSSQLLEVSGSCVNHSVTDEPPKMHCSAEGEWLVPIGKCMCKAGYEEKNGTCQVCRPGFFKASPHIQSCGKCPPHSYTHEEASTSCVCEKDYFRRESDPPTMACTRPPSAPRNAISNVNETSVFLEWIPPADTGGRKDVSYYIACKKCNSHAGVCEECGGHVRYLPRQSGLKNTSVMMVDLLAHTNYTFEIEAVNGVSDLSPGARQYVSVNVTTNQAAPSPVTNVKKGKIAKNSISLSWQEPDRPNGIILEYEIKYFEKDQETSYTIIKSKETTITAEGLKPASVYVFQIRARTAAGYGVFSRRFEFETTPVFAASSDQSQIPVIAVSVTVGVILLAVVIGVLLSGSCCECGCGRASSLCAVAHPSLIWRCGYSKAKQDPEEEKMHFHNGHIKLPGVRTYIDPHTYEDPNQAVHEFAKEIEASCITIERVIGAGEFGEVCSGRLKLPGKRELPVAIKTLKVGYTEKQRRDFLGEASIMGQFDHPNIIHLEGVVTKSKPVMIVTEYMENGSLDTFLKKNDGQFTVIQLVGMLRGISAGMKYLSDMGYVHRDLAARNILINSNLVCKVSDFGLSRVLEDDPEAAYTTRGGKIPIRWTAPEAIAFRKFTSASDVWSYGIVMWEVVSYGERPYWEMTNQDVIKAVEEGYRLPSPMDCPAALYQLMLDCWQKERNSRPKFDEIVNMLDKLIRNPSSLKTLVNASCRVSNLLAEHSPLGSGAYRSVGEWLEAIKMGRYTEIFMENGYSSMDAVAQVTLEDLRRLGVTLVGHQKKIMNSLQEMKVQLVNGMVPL

With O=C(/C=C/c1cnccc1-c1ccc(F)cc1)Nc1ccc(CCc2nnco2)cc1 [T-418, (2E)-3-(4-(4-fluorophenyl)pyridin-3-yl)-N-(4-(2-(1,3,4-oxadiazol-2-yl)ethyl)phenyl)acrylamide] the remaining binding at 0.3 µM (BRSK2; sheet T-418) was 100%, the remaining binding at 0.3 µM (CAMK2D; sheet T-418) was 100% and the remaining binding at 0.3 µM (CLK3; sheet T-418) was 92%. The remaining binding at 0.3 µM ([1]; sheet T-418) was 58%, the remaining binding at 0.3 µM (EPHA3; sheet T-418) was 100% and the remaining binding at 0.3 µM (EPHA4; sheet T-418) was 100%. For the same compound, the remaining binding at 0.3 µM (EPHA5; sheet T-418) was 96%, the remaining binding at 0.3 µM (EPHB1; sheet T-418) was 86% and the remaining binding at 0.3 µM (ERK3; sheet T-418) was 68%. The remaining binding at 0.3 µM (FGFR1; sheet T-418) was 100%, the remaining binding at 0.3 µM (FLT3(K663Q); sheet T-418) was 100% and the remaining binding at 0.3 µM (FLT4; sheet T-418) was 84%. For the same compound, the remaining binding at 0.3 µM (FYN; sheet T-418) was 100%, the remaining binding at 0.3 µM (MEK5; sheet T-418) was 100% and the remaining binding at 0.3 µM (NEK4; sheet T-418) was 100%. The remaining binding at 0.3 µM (NLK; sheet T-418) was 98%, the remaining binding at 0.3 µM (SGK; sheet T-418) was 88% and the remaining binding at 0.3 µM (TNK2; sheet T-418) was 100%. For the same compound, the remaining binding at 0.3 µM ([2]; sheet T-418) was 100%, the remaining binding at 0.3 µM (ULK3; sheet T-418) was 20% and the remaining binding at 0.3 µM (VEGFR2; sheet T-418) was 100%. It also gave a remaining binding at 0.3 µM (WEE2; sheet T-418) of 100%.

Cc1ncccc1Oc1sc(C(N)=O)c2c1-c1c(cnn1C)CC2 [T-474, 1-methyl-8-((2-methylpyridin-3-yl)oxy)-4,5-dihydro-1H-thieno[3,4-g]indazole-6-carboxamide] showed a remaining binding at 0.3 µM (BRSK2) of 87%, a remaining binding at 0.3 µM (CAMK2D) of 100% and a remaining binding at 0.3 µM (CLK3) of 100%. For the same compound, the remaining binding at 0.3 µM [1] was 68%, the remaining binding at 0.3 µM (EPHA3) was 100% and the remaining binding at 0.3 µM (EPHA4) was 100%. The remaining binding at 0.3 µM (EPHA5) was 98%, the remaining binding at 0.3 µM (EPHB1) was 82% and the remaining binding at 0.3 µM (ERK3) was 78%. The remaining binding at 0.3 µM (FGFR1) was 95%, the remaining binding at 0.3 µM (FLT3(K663Q)) was 100% and the remaining binding at 0.3 µM (FLT4) was 83%. The remaining binding at 0.3 µM (FYN) was 100%, the remaining binding at 0.3 µM (MEK5) was 100% and the remaining binding at 0.3 µM (NEK4) was 100%. The remaining binding at 0.3 µM (NLK) was 100%, the remaining binding at 0.3 µM (SGK) was 100% and the remaining binding at 0.3 µM (TNK2) was 100%. For the same compound, the remaining binding at 0.3 µM [2] was 100%, the remaining binding at 0.3 µM (ULK3) was 20% and the remaining binding at 0.3 µM (VEGFR2) was 100%. For the same compound, the remaining binding at 0.3 µM (WEE2) was 100%.
